Entries after “also recorded” stand apart in the source; their conditions may differ.
Experiments:
[1] = tested on: GFP-FAK mouse embryonic fibroblasts; assay: MTT assay (cell viability); assay type: cell-based; details: 5 h compound exposure
Method: Image J was used to automatically quantify FAK-containing focal adhesions due to local maxima of fluorescence intensity in the GFP-channel (5 to 70 pixel). The number of cells was automatically counted in the Hoechst channel. To test reproducibility of the system 40 control wells were quantified wherein four positions for each well were imaged. […] GFP-FAK mouse embryonic fibroblasts were seeded on fibronectin and incubated for 1 h with the indicated concentrations of the small compounds, respectively. […] GFP-FAK mouse embryonic fibroblasts were seeded on fibronectin and serum-starved overnight. The indicated concentrations of Mb31 were applied for 30 min. Cells were lysed and analyzed for paxillin and FAK protein level as well as FAK Tyr397 phosphorylation. […] The purified kinase domain of FAK was incubated with increasing amounts of Mb31 for 1 h at 30°C together with poly-Glu-Tyr as a FAK substrate. […] Cell viability was assessed by MTT assay. […] Migration was recorded from cells that were cultured without serum (A), with serum (B) or with serum in the presence of 3 µM Mb31 (C). […] Mouse embryonic fibroblasts (MEFs) were transfected with talin-mCherry and talin dynamics analyzed in focal adhesions using fluorescence recovery after photobleaching (FRAP). […] (C) Wound closure was microscopically analyzed and evaluated using ImageJ software. […]

paxillin [2] = assay: Paxillin displacement in GFP-FAK MEFs (antibody staining, live cell imaging of mKate-paxillin); assay type: cell-based, mouse; details: 10 µM
Method: The C-terminal focal adhesion targeting domain of FAK binds to paxillin and talin and is responsible for an efficient recruitment of FAK to focal adhesions. Therefore, it was further investigated whether Mb31 targets FAK directly or possibly in an indirect way by displacement of FAK binding proteins paxillin or talin, respectively. GFP-FAK MEFs were treated with 10 µM of Mb31 and analyzed for paxillin and talin localization via antibody staining. […] To analyze whether FAK and paxillin displacement occur with the same temporal pattern GFP-FAK MEFs were transiently transfected to express mKate-tagged paxillin and living cells were imaged after application of 10 µM of Mb31. Along with FAK, paxillin delocalized rapidly and within 10 min almost no paxillin and FAK remained at focal adhesions. Strikingly, in cells over-expressing paxillin higher Mb31 concentrations were necessary in order to achieve efficient FAK displacement. In non-transfected cells already 4 to 5 µM Mb31 were sufficient, whereas in cells with strong over-expression of paxillin even at 10 µM FAK and paxillin displacement was only partial. […] Still, vinculin localization was not altered in FAK-deficient MEFs treated with Mb31.
MEFs were seeded on fibronectin fragment (4 µg/ml in PBS) in multi-well plates (Greiner Bio-One) and incubated for 4 h to allow spreading. Cells were fixed and permeabilized with MeOH at -20°C after pre-fixation with 4% paraformaldehyde. Cells were blocked with 10% CS in PBS (blocking buffer) and incubated with primary antibodies (α-talin, α-paxillin or α-vinculin) in blocking buffer for 1 h at room temperature. Cells were washed three times with PBS and were incubated with appropriate fluorescently labeled secondary antibodies. Cells were washed again with PBS to remove excess antibodies and were imaged using a Leica AF6000LX fluorescence microscope. To analyze reversibility compound treated cells were washed three times with pre-warmed growth medium. After washout cells were incubated 1 h in presence of 10 µg/ml cycloheximide. […]

paxillin [3] = target: T1, paxillin (Mus musculus, UniProt Q8VI36); assay: Paxillin displacement in FAK-deficient MEFs (immunostaining, confocal microscopy); assay type: cell-based
T1 construct: endogenous in cells; host or cells: FAK-/- mouse embryonic fibroblasts
T1 sequence (Q8VI36 whole entry): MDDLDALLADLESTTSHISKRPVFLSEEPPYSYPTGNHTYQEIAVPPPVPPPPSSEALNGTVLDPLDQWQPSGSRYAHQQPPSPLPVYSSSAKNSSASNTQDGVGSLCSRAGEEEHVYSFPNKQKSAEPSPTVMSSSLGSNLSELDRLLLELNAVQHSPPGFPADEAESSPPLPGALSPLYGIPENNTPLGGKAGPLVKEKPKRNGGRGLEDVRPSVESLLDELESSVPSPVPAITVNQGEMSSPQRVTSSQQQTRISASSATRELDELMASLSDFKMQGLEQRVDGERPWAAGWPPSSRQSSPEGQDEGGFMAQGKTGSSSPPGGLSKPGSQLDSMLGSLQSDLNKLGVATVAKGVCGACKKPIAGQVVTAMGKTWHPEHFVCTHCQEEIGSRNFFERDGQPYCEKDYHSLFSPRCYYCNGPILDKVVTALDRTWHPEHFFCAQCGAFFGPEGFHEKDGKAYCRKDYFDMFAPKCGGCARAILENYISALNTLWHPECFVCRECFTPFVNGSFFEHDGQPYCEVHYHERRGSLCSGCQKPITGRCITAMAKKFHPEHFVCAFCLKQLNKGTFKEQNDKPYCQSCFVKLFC

focal adhesions = assay: Focal adhesion dynamics by TIRF microscopy (mKate-vinculin); assay type: cell-based, mouse; details: 5 µM, 40 minutes

| SMILES | cell viability / toxicity ([1]; listed as Mb31) | FAK and paxillin displacement in cells with strong over-expression of paxillin (paxillin [2]) | paxillin localization (paxillin [2]; 30 min, antibody staining) | time until almost no paxillin and FAK remained at focal adhesions (paxillin [2]; living cells expressing mKate-tagged paxillin) [min] | paxillin displacement in FAK knockout MEFs (paxillin [3]; 30 min) | concentration efficiently displacing paxillin (paxillin [3]; FAK-/- MEF cells, 30 min, 1, 10, or 20 µM) [µM] | nascent adhesion formation and mobility of mature adhesions (focal adhesions) | cell viability / toxicity [1] |
| --- | --- | --- | --- | --- | --- | --- | --- | --- |
| O=[N+]([O-])C=Cc1cc(Br)cs1 [FootLocker 1, 4-bromo-2-(2-nitrovinyl)thiophene] | do not impair cell viability; also recorded: minor toxicity | only partial | displaced from focal adhesions | ≤ 10 | efficiently displaced | > 1 | nascent adhesion formation was absent and mature adhesions were immobile | – |
| Nc1ccc(SC(C[N+](=O)[O-])c2ccc(Cl)cc2)cc1 (centres unmarked) [FootLocker 2, 4-{[1-(4-chlorophenyl)-2-nitroethyl]thio}aniline] | – | – | – | – | – | – | – | do not impair cell viability |

From patent publication EP2982368A1, “Small molecule compounds displacing focal adhesion core components” (Universität Konstanz, priority 2014, dated 2016)
